The IC50 is the concentration that inhibits the measured activity by half. The low end stands for inhibition by little substance, the high end for a need for much substance.

Bounds are passed on as bounds.

Test [1] in a line: Inhibition of bovine Phosphatidylinositol 3-kinase. Set-up: species or system Bos taurus.
For the next test, the species on record is Gallus gallus. Nature of the test: Compound was evaluated for inhibitory activity against bone resorption in avian osteoclast.

As to `COC(=O)c1coc2c(O)c3c(c(C)c12)C=C[C@]1(C)C(=O)CC[C@@H]31`, the concentration for half-maximal inhibition (IC50) in test [1] is 4600 nM; in the test filed under Gallus gallus, greater than 1000 nM.
As to `NCCCC(O)(P(=O)(O)O)P(=O)(O)O` [ALENDRONIC ACID], the results for the 50% inhibitory concentration (IC50) (in test [1]; in the test listed under Gallus gallus) were greater than 50000 nM and 100 nM, respectively.
For `COC[C@H]1OC(=O)c2c(C)oc3c2[C@@]1(C)C1=C(C3=O)[C@@H]2CCC(=O)[C@@]2(C)C[C@H]1OC(C)=O` the same measures were greater than 500 nM and greater than 1000 nM.
The molecule `COC[C@H]1OC(=O)c2coc3c2[C@@]1(C)C1=C(C3=O)C2CCC(O)[C@@]2(C)CC1` (stereo partly drawn) had an IC50 in the test filed under Gallus gallus of 103 nM.
Regarding `CC(O)(P(=O)(O)O)P(=O)(O)O` [ETIDRONIC ACID], the half-maximal inhibitory concentration (IC50) in test [1] is greater than 50000 nM; in the test filed under Gallus gallus it was 100000 nM.
For `COC[C@H]1OC(=O)c2coc3c2[C@@]1(C)C1=C(C3=O)[C@@H]2CC[C@H](O)[C@@]2(C)C[C@H]1OC(C)=O` the same measures were 0.5 nM and 10 nM.
The like results for `COC[C@H]1OC(=O)c2coc3c2[C@@]1(C)C1=C(C3=O)[C@@H]2CCC(=O)[C@@]2(C)C[C@H]1OC(C)=O` [WORTMANNIN] were, in that order, 4.2 nM and 98 nM.
In test [1], `COC[C@H]1OC(=O)c2coc3c2[C@@]1(C)C1=CC[C@]2(C)C(=O)CC[C@H]2C1C3=O` (stereo partly drawn) showed an IC50 of 54 nM.
`COC[C@H]1OC(=O)c2coc3c2[C@@]1(C)C1=C(C3=O)[C@@H]2CCC(=O)[C@@]2(C)CC1`: the concentration for half-maximal inhibition (IC50) turned out to be 16.7 nM in test [1] and 506 nM in the test filed under Gallus gallus.
The like results for `Cc1c2c(c(O)c3occ(C(=O)O)c13)C1CCC(=O)[C@@]1(C)C=C2` (stereo partly drawn) were, in that order, greater than 32000 nM and greater than 1000 nM.
